In publication PMC12134935, “Scientific hypothesis generation by large language models: laboratory validation in breast cancer treatment” (Journal of the Royal Society Interface, 2025):
pIC50: −log10 of the molar value. “Also recorded” adds a separate entry of the source. Where two headings read alike, the source gives them in different places.

Key:
Format in all cases: cell-based
MCF10A = experiment: Single drug treatments, viability/toxicity; settings: Homo sapiens, MCF-10A, read-out: MCF10A IC50
Excerpt: (§1) In our experiments, breast cancer cells were exemplified by MCF7 (an epithelial breast cancer cell line); non-tumorigenic breast cells were exemplified by the epithelial cell line MCF10A. We provided GPT4 with a prompt that had several aims:
(§2) In an additional experiment, 12 drugs were retested from the first round (n ≥ 3 replicates). An ANOVA two-way test with three replicates was used to calculate the significance of changes to viability compared with the internal control drug allopurinol for both cell lines (electronic supplementary material, figures S6 and S7). Two of the retested drugs were initially used as positive controls for MCF7 (doxorubicin and fulvestrant).

MCF7 [1] = experiment: Single drug treatments, viability/toxicity; settings: for toxicity towards MCF7: doses up to 25 µM
MCF7 versus MCF10A = experiment: Single drug specificity towards MCF7 compared with MCF10A; settings: first round, MCF7 versus MCF10A viability
MCF7 [2] = experiment: Single drug treatments, viability/toxicity; settings: for reduction of viability of MCF7: two-way ANOVA vs allopurinol, concentrations up to 3.84 µM; for pIC50: Homo sapiens, MCF7, retest of drugs from first round, n ≥ 3 replicates, MCF7
Excerpt: as §1, §2

[3] = single drug, first round, maximum dose 25 µM
[4] = Homo sapiens, MCF7, single drug, first round, maximum dose 25 µM, read-out: MCF7 IC50
[5] = Homo sapiens, MCF7, read-out: MCF7 IC50

SMILES	pIC50 (MCF10A; [3])	pIC50 (MCF7 [1]; [4])	toxicity towards MCF7 (MCF7 [1]; single drug, first round)	further results
C[C@H]1O[C@H](O[C@H]2[C@H](O)[C@@H](O)[C@@H](O[C@H]3[C@H](O)[C@@H](O)C(O)O[C@@H]3CO)O[C@@H]2CO)[C@H](O)[C@@H](O)[C@@H]1N[C@H]1C=C(CO)[C@@H](O)[C@H](O)[C@H]1O (stereo partly drawn) [acarbose]	< 4.60	< 4.60		
COC(=O)Nc1nc2ccc(C(=O)c3ccccc3)cc2[nH]1 [mebendazole]	4.82	< 4.60	showed toxicity towards MCF7	specificity towards MCF7 (MCF7 versus MCF10A): high specificity towards MCF7
CC(C)NCC(O)COc1ccc(CC(N)=O)cc1 (stereo not drawn) [atenolol]	< 4.60	< 4.60		
C[C@]12CC[C@@H]3c4ccc(O)cc4C[C@@H](CCCCCCCCC[S+]([O-])CCCC(F)(F)C(F)(F)F)[C@H]3[C@@H]1CC[C@@H]2O (stereo partly drawn) [fulvestrant]	< 4.60	< 4.60		reduction of viability of MCF7 (MCF7 [2]; retest n ≥ 3): also targeted MCF7; specificity towards MCF7 (MCF7 versus MCF10A): showed preference for MCF7
O=C(Nc1ccc([N+](=O)[O-])cc1Cl)c1cc(Cl)ccc1O [niclosamide]	7.21	6.16	comparatively high toxicity; also recorded: showed toxicity towards MCF7	pIC50 (MCF7 [2]): 5.91; reduction of viability of MCF7 (MCF7 [2]; retest n ≥ 3): significantly reduced the viability of MCF7
CCC(C)n1ncn(-c2ccc(N3CCN(c4ccc(OCC5COC(Cn6cncn6)(c6ccc(Cl)cc6Cl)O5)cc4)CC3)cc2)c1=O (stereo not drawn) [itraconazole]	< 4.60	< 4.60	showed toxicity towards MCF7	
Oc1ncnc2[nH]ncc12 [allopurinol]	< 4.60	< 4.60		
O=C(O)COCCN1CCN(C(c2ccccc2)c2ccc(Cl)cc2)CC1 (stereo not drawn) [cetirizine]	< 4.60	< 4.60		
NS(=O)(=O)c1cc(C(=O)O)c(NCc2ccco2)cc1Cl [furosemide]	< 4.60	< 4.60		
CCC(C)(C)C(=O)O[C@H]1C[C@@H](C)C=C2C=C[C@H](C)[C@H](CC[C@@H]3C[C@@H](O)CC(=O)O3)[C@H]21 [simvastatin]	5.14	5.25	showed toxicity towards MCF7	
CC12CC3CC(C)(C1)CC(N)(C3)C2 [memantine]	< 4.60	< 4.60		
CCN(CCO)CCCC(C)Nc1ccnc2cc(Cl)ccc12 (stereo not drawn) [hydroxychloroquine]	< 4.60	< 4.60	showed toxicity towards MCF7	toxicity to MCF7 (MCF7 [2]; retest n ≥ 3, hydroxychloroquine statement at 25 µM): persistent and substantial
COc1cccc2c1C(=O)c1c(O)c3c(c(O)c1C2=O)C[C@@](O)(C(=O)CO)C[C@@H]3O[C@H]1C[C@H](N)[C@H](O)[C@H](C)O1 [doxorubicin]				pIC50 (MCF7 [2]): 6.52; reduction of viability of MCF7 (MCF7 [2]; retest n ≥ 3): also targeted MCF7; pIC50 (MCF7 [1]; single drug, first round, maximum dose 25 µM, read-out: MCF7 IC50): > 4.60
CCN(CC)CCCC(C)Nc1c2ccc(Cl)cc2nc2ccc(OC)cc12 (stereo not drawn) [quinacrine]	4.99	5.41	showed toxicity towards MCF7	pIC50 (MCF7 [2]): 5.33; reduction of viability of MCF7 (MCF7 [2]; retest n ≥ 3): significantly reduced the viability of MCF7; specificity towards MCF7 (MCF7 versus MCF10A): high specificity towards MCF7
Cc1ccc(-c2cc(C(F)(F)F)nn2-c2ccc(S(N)(=O)=O)cc2)cc1 [celecoxib]	4.65	5.27	showed toxicity towards MCF7	
OCCN(CCO)c1nc(N2CCCCC2)c2nc(N(CCO)CCO)nc(N3CCCCC3)c2n1 [dipyridamole]	< 4.60	< 4.60		reduction of viability of MCF7 (MCF7 [2]; retest n ≥ 3): significantly reduced the viability of MCF7; specificity towards MCF7 (MCF7 versus MCF10A): high specificity towards MCF7
CCN(CC)C(=S)SSC(=S)N(CC)CC [disulfiram]	< 4.60	6.69		pIC50 (MCF7 [2]): 7.23; specificity towards MCF7 (MCF7 versus MCF10A): high specificity towards MCF7
CC(C)c1c(C(=O)Nc2ccccc2)c(-c2ccccc2)c(-c2ccc(F)cc2)n1CC[C@@H](O)C[C@@H](O)CC(=O)O [atorvastatin]	5.42	< 4.60		
CCCc1nn(C)c2c(=O)[nH]c(-c3cc(S(=O)(=O)N4CCN(C)CC4)ccc3OCC)nc12 [sildenafil]	< 4.60	< 4.60	showed toxicity towards MCF7	
COc1ccc2[nH]c([S+]([O-])Cc3ncc(C)c(OC)c3C)nc2c1 (stereo not drawn) [omeprazole]	< 4.60	< 4.60		
CC(=O)c1c(C)c2cnc(Nc3ccc(N4CCNCC4)cn3)nc2n(C2CCCC2)c1=O [palbociclib]	< 4.60	< 4.60		
Cc1ncc([N+](=O)[O-])n1CCO [metronidazole]	< 4.60	< 4.60		
O=P1(N(CCCl)CCCl)NCCCO1 (stereo not drawn) [cyclophosphamide]				pIC50 (MCF10A): < 4.60; pIC50 (MCF7 [1]; [5]): < 4.60
CN/C(=N/CCSCc1nc[nH]c1C)NC#N [cimetidine]	< 4.60	< 4.60	showed toxicity towards MCF7	
CCN(CC)CCCC(C)Nc1ccnc2cc(Cl)ccc12 (stereo not drawn) [chloroquine]			showed toxicity towards MCF7	pIC50 (MCF10A): < 4.60; pIC50 (MCF7 [1]; Homo sapiens, MCF7): 4.97; pIC50 (MCF7 [1]; [5]): < 4.60
